Results taken from PMC6556873, “Rapid Covalent-Probe Discovery by Electrophile-Fragment Screening” (Journal of the American Chemical Society, 2019).
Like-named read-outs stand apart in the source and are kept apart here.

Key:
in vitro [1] = experiment: in vitro; set-up: species or system HB2, HEK293; details: human, ccd841 cells
in vitro [2] = experiment: in vitro; set-up: species or system HB2, CCD841; details: human, hek293 cells
in vitro [3] = experiment: in vitro; set-up: species or system CCD841, HEK293; details: human, hb2 cells, read-out: HB-2 Cells Viability (%)
OTUB2 (OTUB2A) = biological target: T1, OTUB2 (OTUB2A) (Homo sapiens, UniProt Q96DC9); set-up: Intact protein LC/MS covalent labelling, fragments in pools of five, 200 uM each, 4 °C; details: 24 h, 4 °C, pool of five; 200 µM; covalent
T1 construct: full length residues 1-234, E. coli BL21(DE3)-R3, His tag removed by TEV, construct 27312 Da
T1 sequence (Q96DC9 1-234): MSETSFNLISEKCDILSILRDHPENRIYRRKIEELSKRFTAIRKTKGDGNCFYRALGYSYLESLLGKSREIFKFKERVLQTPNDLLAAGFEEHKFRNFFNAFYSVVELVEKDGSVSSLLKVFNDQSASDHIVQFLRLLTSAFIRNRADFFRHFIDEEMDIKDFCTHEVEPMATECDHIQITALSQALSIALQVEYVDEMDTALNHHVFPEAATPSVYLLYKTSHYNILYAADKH

NUDT7 = biological target: T2, NUDT7 (Homo sapiens, UniProt P0C024); set-up: Intact protein LC/MS covalent labelling, fragments in pools of five, 200 uM each, 4 °C; details: 24 h, 4 °C, pool of five; 200 µM; covalent
T2 construct: residues 14-235, E. coli, pNIC28-Bsa4, N-terminal His6 tag removed by TEV, construct 26672 Da
T2 sequence (P0C024 14-235): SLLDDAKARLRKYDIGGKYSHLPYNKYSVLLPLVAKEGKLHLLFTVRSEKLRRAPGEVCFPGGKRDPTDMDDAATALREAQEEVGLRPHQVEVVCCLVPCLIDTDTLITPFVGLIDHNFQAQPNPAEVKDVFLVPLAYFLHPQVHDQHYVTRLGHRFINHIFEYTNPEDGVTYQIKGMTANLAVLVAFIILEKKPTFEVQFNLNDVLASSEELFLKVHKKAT

BSA = biological target: T3, BSA (Bos taurus, UniProt P02769); set-up: Intact protein LC/MS covalent labelling, fragments in pools of five, 200 uM each, 4 °C; details: 24 h, 4 °C, pool of five; 200 µM; covalent
T3 construct: gene ALB
T3 sequence (P02769 whole entry, the tested form may be a part): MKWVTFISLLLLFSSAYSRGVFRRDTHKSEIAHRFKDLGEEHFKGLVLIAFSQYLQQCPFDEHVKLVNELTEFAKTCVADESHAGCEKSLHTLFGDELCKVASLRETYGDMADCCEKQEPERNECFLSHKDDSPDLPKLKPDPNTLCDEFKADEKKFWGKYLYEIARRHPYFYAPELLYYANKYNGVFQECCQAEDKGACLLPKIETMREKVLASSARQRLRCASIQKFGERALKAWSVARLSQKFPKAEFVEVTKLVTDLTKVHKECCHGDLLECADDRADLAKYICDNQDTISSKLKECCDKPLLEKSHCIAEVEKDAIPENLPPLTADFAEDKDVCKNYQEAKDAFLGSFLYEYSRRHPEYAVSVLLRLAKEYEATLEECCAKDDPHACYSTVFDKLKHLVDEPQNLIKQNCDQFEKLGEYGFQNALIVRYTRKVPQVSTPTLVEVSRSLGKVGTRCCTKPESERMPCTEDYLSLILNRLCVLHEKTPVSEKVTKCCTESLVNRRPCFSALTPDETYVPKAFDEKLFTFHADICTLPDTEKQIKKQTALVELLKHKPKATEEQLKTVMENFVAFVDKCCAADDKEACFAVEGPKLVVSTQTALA

PCAF = biological target: T4, PCAF (Homo sapiens, UniProt Q92831); set-up: Intact protein LC/MS covalent labelling, fragments in pools of five, 200 uM each, 4 °C; details: 24 h, 4 °C, pool of five; 200 µM; covalent
T4 construct: gene KAT2B
T4 sequence (Q92831 whole entry, the tested form may be a part): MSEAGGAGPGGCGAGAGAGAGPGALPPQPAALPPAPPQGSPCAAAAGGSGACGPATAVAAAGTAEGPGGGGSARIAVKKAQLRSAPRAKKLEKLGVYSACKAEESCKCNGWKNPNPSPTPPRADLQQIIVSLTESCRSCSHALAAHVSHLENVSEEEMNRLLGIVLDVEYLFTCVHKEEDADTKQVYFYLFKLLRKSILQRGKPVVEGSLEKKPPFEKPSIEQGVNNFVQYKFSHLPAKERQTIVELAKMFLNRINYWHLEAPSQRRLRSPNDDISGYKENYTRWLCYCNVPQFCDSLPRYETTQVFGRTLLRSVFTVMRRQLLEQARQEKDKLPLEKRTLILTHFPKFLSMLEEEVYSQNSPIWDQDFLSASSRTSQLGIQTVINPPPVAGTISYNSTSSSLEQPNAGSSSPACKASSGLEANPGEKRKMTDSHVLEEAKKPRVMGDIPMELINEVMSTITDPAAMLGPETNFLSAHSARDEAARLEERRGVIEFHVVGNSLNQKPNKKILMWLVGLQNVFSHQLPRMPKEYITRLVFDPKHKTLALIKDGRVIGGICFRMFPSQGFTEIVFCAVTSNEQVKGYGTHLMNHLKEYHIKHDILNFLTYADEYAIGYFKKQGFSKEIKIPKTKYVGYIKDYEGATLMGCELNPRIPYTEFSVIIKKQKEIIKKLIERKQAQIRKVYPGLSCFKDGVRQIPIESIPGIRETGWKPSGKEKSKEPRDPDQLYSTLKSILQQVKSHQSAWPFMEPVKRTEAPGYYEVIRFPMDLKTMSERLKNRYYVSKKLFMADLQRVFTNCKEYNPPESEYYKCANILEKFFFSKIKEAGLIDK

SMILES | viability at 48 h, 10 µM (in vitro [1]) | viability at 48 h, 10 µM (in vitro [2]) | viability at 48 h, 10 µM (in vitro [3]) | OTUB2 (OTUB2 (OTUB2A)) | NUDT7 (NUDT7) | BSA (BSA) | PCAF (PCAF)
CC(c1nc2ccccc2s1)N(C)C(=O)CCl (stereo not drawn) [PCM-0102793] | 26.1% | 1% | 4.3% | 0.19 | 0 | 0 | 0
O=C(CCl)NCC1CCCc2ccccc21 (stereo not drawn) [PCM-0102794] | 66.7% | 53.5% | 67.3% | 0.34 | 0 | 0 | 0
CC1CN(C(=O)CCl)CC(C)O1 (stereo not drawn) [PCM-0102796] | 76.2% | 66.2% | 92.9% | 0 | 0 | 0 | 0
O=C(CCl)NCc1nc2ccccc2s1 [PCM-0102803] | 63.8% | 43% | 55.2% | 0.37 | 0 | 0 | 0
C=CC(=O)N1CCN(C(=O)c2ccc(Br)o2)CC1 [PCM-0102804] | 102% | 84.7% | 93.5% | 0 | 0 | 0 | 0
C=CC(=O)N1CCN(c2cc(C)nc(C)n2)CC1 [PCM-0102806] | 105% | 78.9% | 101% | 0 | 0 | 0 | 0
C=CC(=O)N1CCCC2(CNC(=O)O2)C1 (stereo not drawn) [PCM-0102808] | 113% | 102% | 103% | 0.13 | 0 | 0 | 0
O=C(CCl)Nc1nc(-c2ccc(F)cc2)cs1 [PCM-0102809] | 63.1% | 1.7% | 5.1% | 0.21 | 0.37 | 0 | 0
CNC(=O)C1CCN(C(=O)CCl)CC1 [PCM-0102815] | 95.1% | 77.1% | 92.2% | 0.08 | 0 | 0 | 0
CC(C)(C)NC(=O)CNC(=O)CCl [PCM-0102817] | 87.5% | 101% | 102% | 0.41 | 0 | 0 | 0
O=C(CCl)NCC12CC3CC(CC(Br)(C3)C1)C2 [PCM-0102819] | 95% | 99.3% | 109% | 0.63 | 0.05 | 0 | 0
CC1CCc2ccccc2N1C(=O)CCl (stereo not drawn) [PCM-0102822] | 39.6% | 54.7% | 92.2% | 0 | 0 | 0 | 0
O=C(CCl)N1CCC2(CC1)OCCO2 [PCM-0102823] | 99.2% | 91.5% | 98.2% | 0 | 0 | 0 | 0
C=CC(=O)NCc1cccc(C(F)(F)F)c1 [PCM-0102825] | 107% | 82.3% | 97.4% | 0 | 0 | 0 | 0
O=C(CCl)N1CCCC2CCCCC21 (stereo not drawn) [PCM-0102826] | 32.5% | 27.9% | 33.7% | 0 | 0.07 | 0 | 0
COC(=O)C1(NC(=O)CCl)CCC(C)CC1 (stereo not drawn) [PCM-0102827] | 96.8% | 93.6% | 102% | 0 | 0 | 0 | 0
CCC1CCCCN1C(=O)CCl (stereo not drawn) [PCM-0102828] | 80.9% | 69.4% | 85.9% | 0 | 0.04 | 0 | 0

SMILES | viability at 48 h, 10 µM (in vitro [1]) | viability at 48 h, 10 µM (in vitro [2]) | viability at 48 h, 10 µM (in vitro [3]) | OTUB2 (OTUB2 (OTUB2A)) | NUDT7 (NUDT7) | BSA (BSA) | PCAF (PCAF)
CC1CN(C(=O)CCl)CCO1 (stereo not drawn) [PCM-0102830] | 99.1% | 85.9% | 101% | 0 | 0 | 0 | 0
CC1CCN(C(=O)CCl)C2CCCCC12 (stereo not drawn) [PCM-0102831] | 6.8% | 5.6% | 14.7% | 0 | 0.37 | 0 | 0
O=C(CCl)N(C1CC1)C1CCS(=O)(=O)C1 (stereo not drawn) [PCM-0102832] | 85.1% | 67.9% | 88.7% | 0.43 | 0 | 0 | 0
CC(C)(C)N(Cc1cccc(F)c1)C(=O)CCl [PCM-0102833] | 25.3% | 22.2% | 67.5% | 0 | 0 | 0 | 0
C=CC(=O)NC(=O)NCc1ccccc1 [PCM-0102834] | 57.4% | 17.9% | 23% | 0 | 0.35 | 0 | 0
O=C(CCl)N1CCN(S(=O)(=O)c2ccc3ccccc3c2)CC1 [PCM-0102836] | 67.7% | 46.3% | 11.7% | 0 | 0 | 0 | 0
O=C(CCl)N1CCN(S(=O)(=O)c2ccccc2Cl)CC1 [PCM-0102837] | 46.9% | 6% | 4.7% | 0 | 0.18 | 0 | 0
CC(=O)c1sc(NC(=O)CCl)nc1C [PCM-0102838] | 92.1% | 87.2% | 96% | 0 | 0.12 | 0 | 0
C=CC(=O)NCc1ccc(F)cc1 [PCM-0102839] | 111% | 87.3% | 105% | 0 | 0 | 0 | 0
CN(C)c1ccc(Cl)cc1NC(=O)CCl [PCM-0102840] | 85.9% | 63.2% | 29.2% | 0.06 | 0.14 | 0 | 0.23
COC(=O)C1Cc2ccccc2CN1C(=O)CCl (stereo not drawn) [PCM-0102841] | 77.3% | 60.3% | 96.4% | 0.41 | 0.19 | 0 | 0
C=CC(=O)N1CC(C(=O)NC)C1 [PCM-0102843] | 114% | 94.1% | 104% | 0.1 | 0 | 0.23 | 0
C=CC(=O)N1CCC(N)CC1.Cl [PCM-0102844] | 98.2% | 124% | 109% | 0 | 0.2 | 0 | 0.25
C=CC(=O)Nc1nc(-c2ccccc2C)cs1 [PCM-0102845] | 106% | 93.4% | 107% | 0 | 0 | 0 | 0
O=C(CCl)Nc1ccc([N+](=O)[O-])cc1Br [PCM-0102848] | 68.4% | 47% | 54.1% | 0 | 0.24 | 0 | 0
C=CC(=O)N1CCCC(S(=O)(=O)N2CCOCC2)C1 (stereo not drawn) [PCM-0102849] | 97.2% | 97.9% | 107% | 0 | 0 | 0 | 0
